According to the NIST ThermoML archive (doi:10.1016/j.jct.2014.05.019):

Key:
[1] = cn = amount concentration of the nth substance listed, in mol/dm3; conditions: 100 kPa, Liquid, Alternating current cell with electrodes, c1 = 0.1
[2] = refractive index (Na D-line) (dimensionless); conditions: 101.33 kPa, Liquid, Standard Abbe refractometry
[3] = 101.33 kPa, Liquid; for viscosity: Falling or rolling sphere viscometry; for mass density: Vibrating tube method

[Cl-].[K+] [potassium chloride] + O
[1]
Conditions	electrical conductivity [S/m]
288.15 K	1.05
293.15 K	1.16
295.15 K	1.21
297.15 K	1.26
298.15 K	1.29
299.15 K	1.31
301.15 K	1.36
303.15 K	1.41
308.15 K	1.54
313.15 K	1.67
318.15 K	1.8
323.15 K	1.91

O [water]
Conditions	mass density, [3] [kg/m3]	refractive index, [2]	viscosity, [3] [mPa·s]
298.15 K	–	1.33247	–
303.15 K	–	1.33188	0.798
308.15 K	–	1.33124	0.719
313.15 K	992.3	1.33053	0.654
318.15 K	990.3	1.32974	0.595
323.15 K	988.2	1.3289	0.546
328.15 K	985.9	1.32799	0.506
333.15 K	983.4	1.32704	0.466
338.15 K	980.8	1.32605	0.435
343.15 K	978	1.32503	0.408
